Source: patent US8648079B2, “Heterocyclic compounds” (Takeda Pharmaceutical Company Limited, priority 2011, dated 2014)

biological target: T1, human CH24H (Homo sapiens, UniProt Q9Y6A2); assay: Measurement of CH24H inhibitory activity (24-HC produced from [14C] cholesterol by human CH24H lysate); type: biochemical; details: 1 μM test compound, [14C] cholesterol 15 μM, 37° C., 5 hr, read-out: Inhibitory rate (%) at 1 μM
T1 construct: Using Full-Length Mammalian Gene Collection No. 4819975 (Invitrogen) as a template; made in house; host or cells: FreeStyle 293-F cells (transient transfection with pcDNA3.1(+)/hCH24H); crude lysate supernatant
Protocol: The expression of human CH24H was performed using FreeStyle 293 Expression System (Invitrogen). According to the manual attached to FreeStyle 293 Expression System and using the plasmid DNA (pcDNA3.1(+)/hCH24H) for human CH24H expression constructed in Experimental Example 1, a transient expression using FreeStyle 293-F cell was performed. After transfection, the cells were cultured with shaking at 37° C., 8% CO2, 125 rpm for 2 days. The cells were collected by centrifugation, and suspended in a buffer for suspension (100 mM potassium phosphate (pH 7.4), 0.1 mM EDTA, 1 mM DTT, 20% Glycerol). The suspended product was disrupted by a polytron homogenizer (manufactured by Kinematica), and centrifuged at 9000×g for 10 min, and the supernatant was collected. The collected supernatant was cryopreserved (−80° C.) as a human CH24H lysate standard product.
For the measurement of CH24H inhibitory activity, using the human CH24H lysate prepared in Experimental Example 2, the amount of 24-HC produced from cholesterol by catalysis of CH24H was measured in the presence of a test compound, and the amount was compared with that in the absence of the test compound. That is, a test compound solution at various concentrations were mixed with a reaction buffer (50 mM potassium phosphate containing 0.1% BSA and Complete, EDTA-free protease inhibitor cocktail, pH 7.4) and human CH24H lysate. Then, [^14C] cholesterol (53 mCi/mmol specific activity, 15 μM) was added, and CH24H reaction was performed at 37° C. for 5 hr. After completion of the reaction, a quenching solution consisting of chloroform/methanol/distillation water (2:2:1 v/v) was added, and the resulting 24-HC was extracted by shaking. The extract was applied to silica gel thin layer chromatography (ethyl acetate:toluene=4:6), and the obtained ^14C-24HC fraction was measured with BAS2500 (Fujifilm Corporation).
The inhibitory rate (%) was calculated from the ratio of radioactivity in the presence of a test compound relative to the radioactivity in the absence of the test compound.

T1 sequence (Q9Y6A2 whole entry): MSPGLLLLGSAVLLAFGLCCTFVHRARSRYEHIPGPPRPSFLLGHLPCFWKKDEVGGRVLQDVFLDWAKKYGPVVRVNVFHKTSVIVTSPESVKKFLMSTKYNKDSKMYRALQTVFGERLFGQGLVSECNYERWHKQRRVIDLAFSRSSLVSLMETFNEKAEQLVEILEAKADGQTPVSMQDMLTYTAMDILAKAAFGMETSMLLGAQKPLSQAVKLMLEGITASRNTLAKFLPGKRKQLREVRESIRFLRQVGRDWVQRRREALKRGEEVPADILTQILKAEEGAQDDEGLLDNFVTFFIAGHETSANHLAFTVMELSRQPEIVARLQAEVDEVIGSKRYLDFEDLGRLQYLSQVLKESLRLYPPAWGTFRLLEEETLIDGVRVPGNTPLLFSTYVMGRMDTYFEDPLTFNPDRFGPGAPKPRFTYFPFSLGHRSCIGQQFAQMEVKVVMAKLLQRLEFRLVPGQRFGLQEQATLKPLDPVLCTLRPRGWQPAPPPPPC

SMILES | inhibition at 1 µM
O=C(c1cccnc1-c1ccncn1)N1CCC(O)(Cc2ccc(F)cc2F)CC1 [Example 105, (4-(2,4-difluorobenzyl)-4-hydroxypiperidin-1-yl)(2-(pyrimidin-4-yl)pyridin-3-yl)methanone] | 95%
Cc1nc(-c2ccncn2)c(C(=O)N2CCC(O)(Cc3ccccc3)CC2)s1 [Example 60, (4-benzyl-4-hydroxypiperidin-1-yl)(2-methyl-4-(pyrimidin-4-yl)-1,3-thiazol-5-yl)methanone] | 82%
O=C(c1cccnc1-c1ccncc1)N1CCC(O)(Cc2ccc(F)cc2F)CC1 [Example 87, 2,4′-bipyridin-3-yl(4-(2,4-difluorobenzyl)-4-hydroxypiperidin-1-yl)methanone] | 89%
Cc1ccc(-c2ccncc2)c(C(=O)N2CCC(O)(Cc3ccccc3)CC2)c1 [Example 1, (4-benzyl-4-hydroxypiperidin-1-yl)(5-methyl-2-(pyridin-4-yl)phenyl)methanone] | 92%
Cn1ncc(-c2ccncc2)c1C(=O)N1CCC(O)(Cc2ccccc2)CC1 [Example 32, (4-benzyl-4-hydroxypiperidin-1-yl)(1-methyl-4-(pyridin-4-yl)-1H-pyrazol-5-yl)methanone] | 92%
Cc1ccc(-c2ccncc2)c(C(=O)N2CCC(O)(CC3=NCCS3)CC2)c1 [Example 39, (4-(4,5-dihydro-1,3-thiazol-2-ylmethyl)-4-hydroxypiperidin-1-yl)(5-methyl-2-(pyridin-4-yl)phenyl)methanone] | 90%
O=C(c1cc(F)ccc1-c1ccncn1)N1CCC(O)(Cc2ccccn2)CC1 [Example 58, (5-fluoro-2-(pyrimidin-4-yl)phenyl)(4-hydroxy-4-(pyridin-2-ylmethyl)piperidin-1-yl)methanone] | 84%
O=C(c1ccccc1-c1cnco1)N1CCC(O)(Cc2ccccc2)CC1 [Example 82, (4-benzyl-4-hydroxypiperidin-1-yl)(2-(1,3-oxazol-5-yl)phenyl)methanone] | 87%
O=C(c1ccccc1-c1ccncn1)N1CCC(O)(Cc2ccccc2)CC1 [Example 14, (4-benzyl-4-hydroxypiperidin-1-yl)(2-(pyrimidin-4-yl)phenyl)methanone] | 92%
Cc1ccc(-c2ccncc2)c(C(=O)N2CCC(O)(C(C)C)CC2)c1 [Example 5, (4-hydroxy-4-isopropylpiperidin-1-yl)(5-methyl-2-(pyridin-4-yl)phenyl)methanone] | 70%
O=C(c1c(C(F)(F)F)n[nH]c1-c1ccncc1)N1CCC(O)(Cc2ccccc2)CC1 [Example 41, (4-benzyl-4-hydroxypiperidin-1-yl)(5-(pyridin-4-yl)-3-(trifluoromethyl)-1H-pyrazol-4-yl)methanone] | 93%
O=C(c1scnc1-c1ccncc1)N1CCC(O)(Cc2ccccc2)CC1 [Example 26, (4-benzyl-4-hydroxypiperidin-1-yl)(4-(pyridin-4-yl)-1,3-thiazol-5-yl)methanone] | 92%
O=C(c1cccnc1-c1ccncn1)N1CCC(O)(Cc2ccc(F)cc2)CC1 [Example 92, (4-(4-fluorobenzyl)-4-hydroxypiperidin-1-yl)(2-(pyrimidin-4-yl)pyridin-3-yl)methanone] | 88%
N#Cc1ccc(CC2(O)CCN(C(=O)c3cccnc3-c3ccncc3)CC2)cc1 [Example 70, 4-((1-(2,4′-bipyridin-3-ylcarbonyl)-4-hydroxypiperidin-4-yl)methyl)benzonitrile] | 89%
O=C(c1ncsc1-c1ccncc1)N1CCC(O)(Cc2ccccc2)CC1 [Example 25, (4-benzyl-4-hydroxypiperidin-1-yl)(5-(pyridin-4-yl)-1,3-thiazol-4 yl)methanone] | 94%
O=C(c1cccnc1-c1ccncc1)N1CCC(O)(Cc2ccc(F)cc2)CC1 [Example 67, 2,4′-bipyridin-3-yl(4-(4-fluorobenzyl)-4-hydroxypiperidin-1-yl)methanone] | 89%
COC1(Cc2ccccc2)CCN(C(=O)c2cc(C)ccc2-c2ccncc2)CC1 [Example 59, (4-benzyl-4-methoxypiperidin-1-yl)(5-methyl-2-(pyridin-4-yl)phenyl)methanone] | 83%
O=C(c1cccnc1-c1ccncn1)N1CCC(O)(Cc2ccccc2)CC1 [Example 54, (4-benzyl-4-hydroxypiperidin-1-yl)(2-(pyrimidin-4-yl)pyridin-3-yl)methanone] | 90%
COc1ccc(CC2(O)CCN(C(=O)c3cccnc3-c3ccncc3)CC2)cc1 [Example 97, 2,4′-bipyridin-3-yl(4-hydroxy-4-(4-methoxybenzyl)piperidin-1-yl)methanone] | 87%
O=C(c1c(-c2ccncc2)ccc2c1OCO2)N1CCC(O)(Cc2ccccc2)CC1 [Example 9, (4-benzyl-4-hydroxypiperidin-1-yl)(5-(pyridin-4-yl)-1,3-benzodioxol-4-yl)methanone] | 87%
Cc1noc(-c2ccncc2)c1C(=O)N1CCC(O)(Cc2ccccc2)CC1 [Example 2, (4-benzyl-4-hydroxypiperidin-1-yl)(3-methyl-5-(pyridin-4-yl)-1,2-oxazol-4-yl)methanone] | 90%
O=C(c1ccccc1-c1ccncn1)N1CCC(O)(Cc2ccccn2)CC1 [Example 34, (4-hydroxy-4-(pyridin-2-ylmethyl)piperidin-1-yl)(2-(pyrimidin-4-yl)phenyl)methanone] | 90%
O=C(c1ccccc1-c1cnco1)N1CCC(O)(Cc2ccc(F)cc2F)CC1 [Example 102, (4-(2,4-difluorobenzyl)-4-hydroxypiperidin-1-yl)(2-(1,3-oxazol-5-yl)phenyl)methanone] | 89%
O=C(c1cccnc1-c1ccncc1)N1CCC(O)(Cc2ccc(F)c(F)c2)CC1 [Example 86, 2,4′-bipyridin-3-yl(4-(3,4-difluorobenzyl)-4-hydroxypiperidin-1-yl)methanone] | 89%
O=C(c1cccnc1-c1ccncc1)N1CCC(O)(Cc2ccccc2)CC1 [Example 44, (4-benzyl-4-hydroxypiperidin-1-yl)(2,4′-bipyridin-3-yl)methanone] | 95%
O=C(c1ccc(F)cc1-c1ccncc1)N1CCC(O)(Cc2ccccn2)CC1 [Example 30, (4-fluoro-2-(pyridin-4-yl)phenyl)(4-hydroxy-4-(pyridin-2-ylmethyl)piperidin-1-yl)methanone] | 91%
O=C(c1ccc(F)cc1-c1ccncn1)N1CCC(O)(Cc2ccccn2)CC1 [Example 63, (4-fluoro-2-(pyrimidin-4-yl)phenyl)(4-hydroxy-4-(pyridin-2-ylmethyl)piperidin-1-yl)methanone] | 82%
O=C(c1cc(F)c(F)cc1-c1ccncn1)N1CCC(O)(Cc2ccccn2)CC1 [Example 56, (4,5-difluoro-2-(pyrimidin-4-yl)phenyl)(4-hydroxy-4-(pyridin-2-ylmethyl)piperidin-1-yl)methanone] | 90%

system: APP/PS1 double transgenic mouse; assay: Y-maze test using APP/PS1 double transgenic mouse (spontaneous alternation behavior); type: in vivo; details: 10 mg/kg orally once a day, Y-maze at 16 hours after the 13th administration
Protocol: Animals used were 3-month-old female APP/PS1 double transgenic mice (10-15 mice/group). A test compound was suspended in a 0.5% aqueous methylcellulose [133-14255 WAKO] solution (1 mg/mL). The body weight of the mice was measured, and the solution was forcibly administered orally and repeatedly once a day for 14 days. At 16 hours after the 13th administration, spontaneous alternation behavior in Y-maze test was evaluated. Using a particular arm of a Y-shaped test apparatus as the starting point, the frequency of moving to a different arm was counted for 5 min. The first two times of entry were excluded from the total number of entry. In addition, the mice that entered less than 10 times in total were excluded. Movement to an arm different from the arm into which the mouse entered last but one was considered an alternation behavior, and the ratio to the total number of moving was calculated as a spontaneous alternation behavior rate. As comparison subjects, a control group (test compound-non treatment group) and a control group in wild-type mice were used.

SMILES | Spontaneous alternation behavior rate (%)
O=C(c1cccnc1-c1ccncn1)N1CCC(O)(Cc2ccc(F)cc2)CC1 [Example 92, (4-(4-fluorobenzyl)-4-hydroxypiperidin-1-yl)(2-(pyrimidin-4-yl)pyridin-3-yl)methanone] | 62%
O=C(c1cccnc1-c1ccncc1)N1CCC(O)(Cc2ccccc2)CC1 [Example 44, (4-benzyl-4-hydroxypiperidin-1-yl)(2,4′-bipyridin-3-yl)methanone] | 71%

same assay, conditions: 30 mg/kg orally once a day, Y-maze at 16 hours after the 13th administration

SMILES | Spontaneous alternation behavior rate (%)
O=C(c1cccnc1-c1ccncn1)N1CCC(O)(Cc2ccc(F)cc2)CC1 [Example 92, (4-(4-fluorobenzyl)-4-hydroxypiperidin-1-yl)(2-(pyrimidin-4-yl)pyridin-3-yl)methanone] | 72%
O=C(c1cccnc1-c1ccncc1)N1CCC(O)(Cc2ccccc2)CC1 [Example 44, (4-benzyl-4-hydroxypiperidin-1-yl)(2,4′-bipyridin-3-yl)methanone] | 71%
